# “Also recorded” adds a separate entry of the source.
# Legend:
# cSCC keratinocytes [1] = experiment: Cell cycle analysis (BrdU / propidium iodide, flow cytometry); assay type: cell-based, human; conditions: 20 hours following drug treatment, GW843682X 10 μM, BI2536 5 μM
# Protocol: Cells were RNAi transfected or drug treated for designated times before BrdU (Sigma) was added at 30 μM final volume for 20 min. Cells were collected and fixed by dropping 1 ml cell suspension in PBS into 3 ml ice cold ethanol while vortexing. Pepsin (Sigma) was added at 1 mg/ml in 30 mM HCL for 30 min and DNA denatured with 2N HCL for 20 min. Anti-BrdU antibody (Becton Dickinson) diluted in PBS/0.5% Tween/0.5% BSA was added for one hour followed by 30 min incubation with a FITC-sheep anti-mouse IgG (Sigma). Propidium iodide (Sigma) was added in the final wash step at a concentration of 25 μg/ml and samples analyzed using a FACScan flow cytometer and CellQuest software (Becton Dickinson).
# cSCC keratinocytes [2] = experiment: Cell Death Detection ELISA (apoptosis, cytoplasmic nucleosomes) in cSCC cells; assay type: cell-based, human; conditions: GW843682X 10 μM, BI2536 5 μM, relative to drug vehicle control
# Protocol: Apoptosis was detected using the Cell Death Detection ELISA^PLUS (Roche Diagnostics Ltd, West Sussex, UK). Cells were seeded in 24-well plates at 0.5×10^5 cells/well for 24 hours and either transfected with siRNA or treated with small molecule inhibitors for 24 or 16 hours respectively before collecting lysates and performing ELISA as described by manufacturer.
# [3] = test system: cSCC keratinocytes (SCCIC1, SCCRDEB2); experiment: MTS cell viability assay in cSCC keratinocytes; assay type: cell-based, human; conditions: 72 hours, GW843682X 10 μM, BI2536 5 μM
# Protocol: For the initial high-throughput RNAi screen we used a custom library to our 21 up regulated genes containing the top 3 siRNA oligonucleotides per gene as ranked by Sigma. In each experiment a negative control (MISSION® siRNA Universal Negative Control #1, Sigma) and positive control (AllStars Hs Cell Death Control siRNA, Qiagen) were used. Cells were seeded in 96-well plates at 5000 cells/well in 100 μl keratinocyte media and transfected 24 hours later with siRNA (40 nM final concentration) using Lipofectamine™ 2000, Invitrogen, Carlsbad, Calif.) diluted in Opti-MEM® (Invitrogen) according to manufacturers instructions. Cell viability was assessed at 48, 72 and 96 hours post-transfection, and a reading taken at time zero (pre-transfection), using the MTS CellTitre 96 AQueous One Solution Cell Proliferation Assay (Promega, Madison, Wis.) according to manufacturers instructions. Absorbance readings were taken at 490 nm using a VersaMax microplate reader (Molecular Devices, Sunnyvale, Calif.).
# For RNAi transfection, cells were seeded in 6-well plates at 2.5×10^5 cells/well and 24 hours later transfected as described above. Cells were left for 16 hours then trypsinized, counted on a CASY counter (Roche Diagnostics Ltd, West Sussex, UK) and seeded in 96 well plates at 3000 cells/well in 100 μl media. […] Viability was assessed as before.
# [4] = test system: normal human keratinocytes (NHK); experiment: MTS cell viability assay in normal keratinocytes; assay type: cell-based; conditions: 72 hours, GW843682X 10 μM, BI2536 5 μM
# Protocol: For RNAi transfection, cells were seeded in 6-well plates at 2.5×10^5 cells/well and 24 hours later transfected as described above. Cells were left for 16 hours then trypsinized, counted on a CASY counter (Roche Diagnostics Ltd, West Sussex, UK) and seeded in 96 well plates at 3000 cells/well in 100 μl media. Cell viability was determined using the MTS assay as described above, with an absorbance reading at time of seeding (T0) and readings 48 and 72 hour post transfection. For small molecule inhibitor treatment cells were seeded in 96-well plates at 3000 cells/well and 24 hours later 100 μl fresh media containing drug at the designated final concentrations added. Viability was assessed as before.
# SCCIC1 xenograft tumors = experiment: SCCIC1 xenograft tumor treatment in SCID mice; assay type: in vivo, SCID Balb/c mice
# Protocol: FIG. 6—PLK1 inhibition and c20orf20 knockdown inhibits tumor growth in vivo. Female SCID Balb/c mice were subcutaneously injected in the right flank with 4×10^6 SCCIC1 cells mixed with high-concentration Matrigel®. When tumors reached a volume of 100 mm^3, animals were organised in treated and control groups. (A) Top panel: SCCIC1 tumors were treated with the PLK1 inhibitor, BI 2536. The treated group (n=3) was injected into the tumor with 100 μl of BI 2536 formulated in hydrochloric acid (0.1 N), diluted with 0.9% NaCl at a dose of 25 mg/kg, 3 times a week during 2 weeks. The control group (n=2) was injected with the vehicle at the same schedule. Tumor volumes were measured 3 times a week with a calliper for a further 2 weeks after treatment. Bottom panel: SCCIC1 tumors were treated with c20orf20 siRNA. The treated group (n=3) was injected into the tumor with 580 pmol c20orf20 targeting siRNA duplex in 100 μl PBS. The control group was injected with 580 pmol non-targeting siRNA duplex in approximately 100 μl PBS. Each group was treated every other day for 16 cycles. The animals were sacrificed 2 days after the last treatment. (B) Representative H&E stained section (top) and keratin immunostained section (bottom) of control (left) and BI2536-treated (right) SCCIC1 tumors after 2 weeks of treatment. A subset of animals was sacrificed at the end of the 6 cycles of treatment without waiting 2 more weeks. […] The control tumors contained numerous SCCIC1 cells (100× magnification). (C) Representative pictures from the experiment shown in (A) of vehicle (top left, tumor bisected showing both halves delineated by the dashed line) and BI2536-treated (top right) SCCIC1 tumors. […]
# Primary keratinocytes were isolated and grown in the presence of a mitotically inactivated 3T3 feeder layer as described (Rheinwald and Beckett, 1981). […] Tumors were measured by caliper and treatment began when volume reached 100 mm^3.
compound,measurement,setting,value
CC[C@@H]1C(=O)N(C)c2cnc(Nc3ccc(C(=O)NC4CCN(C)CC4)cc3OC)nc2N1C1CCCC1 [BI2536],"cell cycle distribution (G0/G1, S, G2/M)",cSCC keratinocytes [1],accumulation of cells at the G2/M phase
same,apoptosis (cleaved nucleosomes in the cytoplasm),cSCC keratinocytes [2],substantial induction of apoptosis
same,cell viability (MTS assay),[3],potent reduction of cell viability
same,growth of normal primary keratinocytes (MTS assay),[4],no effect
same,tumor volume at the end of the 6 cycles of treatment,"SCCIC1 xenograft tumors; BI2536 25 mg/kg injected into the tumor, 3 times a week, 2 weeks, treated versus control group",no difference in tumor volume
same,presence of tumor keratinocytes in the tumor (histology),"SCCIC1 xenograft tumors; BI2536 25 mg/kg injected into the tumor, 3 times a week, after 2 weeks of treatment, versus vehicle, 25 mg/kg",without any discernable SCCIC1 tumor cells; also recorded: marked reduction in the presence of tumor keratinocytes
same,efficacy in treating cSCC in vivo,"SCCIC1 xenograft tumors; BI2536, SCCIC1 xenograft",dramatic efficacy
COc1cc2ncn(-c3cc(OCc4ccccc4C(F)(F)F)c(C(N)=O)s3)c2cc1OC [GW843682X],"cell cycle distribution (G0/G1, S, G2/M)",cSCC keratinocytes [1],accumulation of cells at the G2/M phase
same,apoptosis (cleaved nucleosomes in the cytoplasm),cSCC keratinocytes [2],substantial induction of apoptosis
same,cell viability (MTS assay),[3],potent reduction of cell viability
same,growth of normal primary keratinocytes (MTS assay),[4],no effect

# Reference: patent publication US20130336987A1, “Identification of Therapeutic Targets in Cutaneous SCC” (UNIVERSITY OF DUNDEE, priority 2010, published 2013)
